# Laboratory results: ChEMBL document CHEMBL3045025, “Exploring structural requirement and binding interactions of -amyloid cleavage enzyme inhibitors using molecular modeling techniques” (Med Chem Res, 2013)
# Molecular target: Beta-secretase 1 (Homo sapiens, UniProt P56817)
# Assay: Inhibition of BACE (unknown origin)
# Beta-secretase 1, sequence (P56817 whole entry): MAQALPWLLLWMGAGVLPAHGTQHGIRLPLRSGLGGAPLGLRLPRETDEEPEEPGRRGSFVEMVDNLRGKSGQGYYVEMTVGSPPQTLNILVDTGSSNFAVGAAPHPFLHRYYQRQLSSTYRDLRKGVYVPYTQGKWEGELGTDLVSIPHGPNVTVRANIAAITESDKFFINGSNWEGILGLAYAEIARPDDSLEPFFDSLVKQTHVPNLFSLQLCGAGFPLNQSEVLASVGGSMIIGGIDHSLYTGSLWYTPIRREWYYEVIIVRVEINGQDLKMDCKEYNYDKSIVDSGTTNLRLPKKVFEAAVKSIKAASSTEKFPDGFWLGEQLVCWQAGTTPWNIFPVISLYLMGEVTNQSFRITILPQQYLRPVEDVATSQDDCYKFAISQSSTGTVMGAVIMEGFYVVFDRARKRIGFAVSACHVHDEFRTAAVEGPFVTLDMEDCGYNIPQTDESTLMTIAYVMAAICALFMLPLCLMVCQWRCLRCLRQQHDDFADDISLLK
row,Ki,SMILES
1,22.4 µM,CC(C)C[C@H](NCC(=O)[C@H](CC(N)=O)NC(=O)OC(C)(C)C)[C@@H](O)C[C@@H](C)C(=O)N[C@@H](C)C(=O)NCc1ccccc1
2,8 µM,CC(C)C[C@H](NCC(=O)[C@@H](CCS(C)(=O)=O)NC(=O)[C@@H](NC(=O)OC(C)(C)C)C(C)C)[C@@H](O)C[C@@H](C)C(=O)N[C@@H](C(=O)NCc1ccccc1)C(C)C
3,10.5 µM,CSCC[C@@H](NC(=O)[C@@H](NC(=O)OC(C)(C)C)C(C)C)C(=O)CN[C@@H](CC(C)C)[C@@H](O)C[C@@H](CC(C)C)C(=O)N[C@@H](C(=O)NCc1ccccc1)C(C)C
4,3.13 µM,CC(C)C[C@H](NCC(=O)[C@H](CC(N)=O)NC(=O)OC(C)(C)C)[C@@H](O)C[C@@H](C)C(=O)N[C@H](C(=O)NCc1ccccc1)C(C)C
5,1.13 µM,CC(C)C[C@H](NCC(=O)[C@H](CS(C)(=O)=O)NC(=O)OC(C)(C)C)[C@@H](O)C[C@@H](C)C(=O)N[C@H](C(=O)NCc1ccccc1)C(C)C
6,61.4 µM,CC(C)C[C@H](NCC(=O)[C@H](CC(N)=O)NC(=O)[C@@H](NC(=O)OC(C)(C)C)C(C)C)[C@@H](O)C[C@@H](C)C(=O)N[C@@H](C)C(=O)NCc1ccccc1
7,5.9 µM,CC(C)C[C@H](NCC(=O)[C@H](CC(N)=O)NC(=O)[C@@H](NC(=O)OC(C)(C)C)C(C)C)[C@@H](O)C[C@@H](C)C(=O)N[C@@H](C(=O)NCc1ccccc1)C(C)C
8,50.1 µM,CSC[C@@H](NC(=O)[C@@H](NC(=O)OC(C)(C)C)C(C)C)C(=O)CN[C@@H](CC(C)C)[C@@H](O)C[C@@H](C)C(=O)N[C@H](C(=O)NCc1ccccc1)C(C)C
9,9.4 µM,CC(C)C[C@H](NCC(=O)[C@H](CS(C)(=O)=O)NC(=O)[C@@H](NC(=O)OC(C)(C)C)C(C)C)[C@@H](O)C[C@@H](C)C(=O)N[C@@H](C(=O)NCc1ccccc1)C(C)C
10,5.81 µM,CSCC[C@@H](NC(=O)OC(C)(C)C)C(=O)CN[C@@H](CC(C)C)[C@@H](O)C[C@@H](C)C(=O)N[C@H](C(=O)NCc1ccccc1)C(C)C
11,2.5 µM,"CSCC[C@@H](NC(=O)[C@@H](NC(=O)OC(C)(C)C)C(C)C)C(=O)CN[C@@H](CC(C)C)[C@@H](O)C[C@@H](C)C(=O)NC(C(=O)NCc1ccccc1)C(C)C (single isomer, unassigned)"
